Test results as given in US7829533B2, “Cyclosporin analog formulations” (Isotechnika Inc., priority 2001, dated 2010).

Test: Toxicokinetic study in the rabbit model (serum creatinine, hematology, organ examination)
Description: On Days 1 and 7, blood samples were collected prior to drug administration and at 0.5, 1, 2, 4, 8, 12, 18, and 24 hours post-dose to generate a pharmacokinetic profile. Other evaluated parameters included clinical observations, body weight, food consumption, hematology, clinical chemistry, gross pathology, and histopathological examination of selected tissues/organs.

## C=C/C=C/C[C@@H](C)[C@@H](O)[C@H]1C(=O)N[C@@H](CC)C(=O)N(C)CC(=O)N(C)[C@@H](CC(C)C)C(=O)N[C@@H](C(C)C)C(=O)N(C)[C@@H](CC(C)C)C(=O)N[C@@H](C)C(=O)N[C@H](C)C(=O)N(C)[C@@H](CC(C)C)C(=O)N(C)[C@@H](CC(C)C)C(=O)N(C)[C@@H](C(C)C)C(=O)N1C [ISATX247]
Male rabbits, 15 mg/kg
  Examination of organs: spermatogenesis: decrease in spermatogenesis
rabbits, 5 mg/kg
  Examination of organs: no significant abnormalities
rabbits, 10 mg/kg
  Examination of organs: no significant abnormalities
rabbits, 10 mg/kg cyclosporine A, 5 or 10 mg/kg ISATx247
  Interstitial fibrosis in the kidneys: no evidence of interstitial fibrosis
rabbits, 15 mg/kg/day
  Increase in serum creatinine levels: did not result in any significant increase
rabbits, 30-day study
  Changes in hematological parameters: No significant changes
